Earlier results as cited in US8758826B2, “Cannabinoid receptor binding agents, compositions, and methods” (Wet Inc., priority 2011, dated 2014).

Columns and labels:
CB2 = CB2 (Homo sapiens, UniProt P34972); settings: higher for CB2 than CB1
[1] = test system: rats with a partial urethral obstruction
histamine-induced itch = settings: topically applied
keratinocyte = settings: in vitro and in situ

CB2, sequence (P34972 whole entry, species assumed): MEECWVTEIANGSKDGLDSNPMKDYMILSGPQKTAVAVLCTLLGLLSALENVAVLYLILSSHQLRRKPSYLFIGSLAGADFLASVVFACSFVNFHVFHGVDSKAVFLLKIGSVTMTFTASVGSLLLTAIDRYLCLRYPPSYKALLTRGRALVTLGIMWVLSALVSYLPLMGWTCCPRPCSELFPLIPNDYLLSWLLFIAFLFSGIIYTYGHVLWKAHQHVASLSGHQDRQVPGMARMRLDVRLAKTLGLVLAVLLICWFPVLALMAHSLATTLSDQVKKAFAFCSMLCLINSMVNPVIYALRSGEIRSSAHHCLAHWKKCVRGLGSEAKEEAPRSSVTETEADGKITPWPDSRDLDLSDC

CCCCCc1cc(O)c2c(c1)OC(C)(C)c1ccc(C)cc1-2 [Cannabinol]
Binding affinity to CB2 than to CB1 (CB2): 10 fold

CCCCCCC(C)(C)c1cc(O)c([C@H]2CC(=O)[C@H]3C[C@@H]2C3(C)C)c(OC(=O)/C=C/C(=O)O)c1 [Cannabinor]
Bladder emptying [1]: improves bladder emptying

CCCCCCC(C)(C)c1cc(O)c2c(c1)OC(C)(C)[C@@H]1CC=C(CO)C[C@@H]21 [HU-210]
Histamine-induced itch (histamine-induced itch): capable of reducing histamine-induced itch

Cc1c(C(=O)NN2CCCCC2)nn(-c2ccc(Cl)cc2Cl)c1-c1ccc(Cl)cc1 [SR141716]
Sperm motility (human sperm): enhance sperm motility

CCCCCc1cc(O)c2c(c1)OC(C)(C)[C@@H]1CCC(C)=C[C@@H]21 [THC, Δ9-tetrahydrocannabinol]
Hair shaft elongation (human hair follicle): dose-dependently inhibited
Intraepithelial apoptosis and premature HF regression (catagen) (human hair follicle): induced
Proliferation of hair matrix keratinocytes (human hair follicle): dose-dependently inhibited
Action at CB1 (CB1): agonist
Melanin content of the hair follicle (hair follicle): significantly and dose-dependently suppressed

CCCCC/C=C\C/C=C\C/C=C\C/C=C\CCCC(=O)NCCO [anandamide, N-arachidonoylethanolamide]
Hair shaft elongation (human hair follicle): dose-dependently inhibited
Intraepithelial apoptosis and premature HF regression (catagen) (human hair follicle): induced
Proliferation of hair matrix keratinocytes (human hair follicle): dose-dependently inhibited
Cell death (keratinocyte): induces cell death
Keratinocyte proliferation (keratinocyte): markedly suppresses

COc1cc(/C=C/C(=O)CC(=O)/C=C/c2ccc(O)c(OC)c2)ccc1O [curcumin]
Apoptosis in melanoma cells (melanoma cells): induce apoptosis
Proliferation of melanoma cells (melanoma cells): suppress proliferation
